Laboratory results reported in PubChem BioAssay AID200 (DTP/NCI, 2004).
Several values for one entry are separate records, joined by “and”; a condition that tells them apart may be missing. Identical values can stand only once. Toxic doses and inconclusive results are not listed. How the source made its calls: active means survival T/C of 150% or more; inactive means T/C below 125% in these data.

Tested on: B6C3F1 mice, B16 melanoma ip, median survival T/C
Assay: NCI In Vivo Anticancer Drug Screen. Data for tumor model B16 Melanoma (intraperitoneal) in B6C3F1 mice
Conditions: endpoint: median survival time, schedule: Q01DX009 (ip), higher = longer survival
Outline: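 Readout: survival or tumor size in treated mice relative to vehicle controls (T/C). Model uses transplantable tumors grown in mice.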

[1] = dose: 100.0 mg/kg/injection, vehicle: saline with Tween-80
[2] = dose: 200.0 mg/kg/injection, vehicle: saline with Tween-80
[3] = dose: 400.0 mg/kg/injection, vehicle: saline with Tween-80
[4] = dose: 100.0 mg/kg/injection, vehicle: water
[5] = dose: 50.0 mg/kg/injection, vehicle: saline with Tween-80

Measured: T/C

CCOC(=O)N1CCN(CCCCCOc2ccc(CC(C)(C)C)cc2Cl)CC1
inactive: dose: 3.13 mg/kg/injection, vehicle: saline 109 % of control | dose: 6.25 mg/kg/injection, vehicle: saline 121 % of control | dose: 12.5 mg/kg/injection, vehicle: saline 112 % of control | dose: 25.0 mg/kg/injection, vehicle: saline 101 % of control

CCOC(=O)c1c(C)c(C(=O)OCC)n(C)c1C=O
inactive: [1] 95 % of control | [2] 94 % of control | [3] 92 % of control

[Cl][Pt+2][Cl].[NH-]c1ccccc1[NH-]
active: dose: 5.0 mg/kg/injection, vehicle: saline with Tween-80 150 % of control
inactive: dose: 0.63 mg/kg/injection, vehicle: saline with Tween-80 99 % of control | dose: 1.25 mg/kg/injection, vehicle: saline with Tween-80 111 % of control

O=S(=O)(O)O
inactive: dose: 30.0 mg/kg/injection, vehicle: water 121 % of control and 91 % of control | dose: 44.0 mg/kg/injection, vehicle: water 108 % of control and 99 % of control | dose: 67.0 mg/kg/injection, vehicle: water 95 % of control and 102 % of control | [4] 97 % of control and 103 % of control

CC(C)[C@](O)(C(=O)OCC1=CCN2CC[C@@H](O)[C@@H]12)[C@H](C)O
inactive: dose: 25.0 mg/kg/injection, vehicle: water 107 % of control | dose: 50.0 mg/kg/injection, vehicle: water 111 % of control and 116 % of control | [4] 111 % of control | dose: 200.0 mg/kg/injection, vehicle: water 117 % of control

CN(C)CCC(C#N)(CCC1CCCCC1)c1ccccc1 (stereo not given)
inactive: dose: 10.0 mg/kg/injection, vehicle: saline 95 % of control | dose: 20.0 mg/kg/injection, vehicle: saline 95 % of control | dose: 40.0 mg/kg/injection, vehicle: saline 92 % of control

CC(OCc1ccccc1)C(NC(=O)OC(C)(C)C)C(=O)O (stereo not given)
inactive: dose: 100.0 mg/kg/injection, vehicle: Klucel (hydroxypropylcellulose) (HPC) 92 % of control | dose: 200.0 mg/kg/injection, vehicle: Klucel (hydroxypropylcellulose) (HPC) 100 % of control | dose: 400.0 mg/kg/injection, vehicle: Klucel (hydroxypropylcellulose) (HPC) 96 % of control

Cc1cc(NCCCCCCCCNc2cc(C)nc3cc(N(C)C)ccc23)c2ccc(N(C)C)cc2n1
inactive: dose: 3.12 mg/kg/injection, vehicle: distilled water + Tween-80 105 % of control | dose: 6.25 mg/kg/injection, vehicle: distilled water + Tween-80 115 % of control | dose: 25.0 mg/kg/injection, vehicle: distilled water + Tween-80 121 % of control

NCC(O)c1ccc(O)c(O)c1 (stereo not given)
inactive: dose: 0.39 mg/kg/injection, vehicle: suspension in saline 109 % of control | dose: 0.75 mg/kg/injection, vehicle: suspension in saline 96 % of control | dose: 1.5 mg/kg/injection, vehicle: suspension in saline 103 % of control | dose: 3.0 mg/kg/injection, vehicle: suspension in saline 100 % of control | dose: 6.0 mg/kg/injection, vehicle: suspension in saline 100 % of control and 106 % of control | dose: 12.0 mg/kg/injection, vehicle: suspension in saline 124 % of control and 105 % of control | dose: 24.0 mg/kg/injection, vehicle: suspension in saline 100 % of control

CCCC(C(CC)CNC(=O)Nc1cccc2ccccc12)N(C)C(=O)Nc1cccc2ccccc12 (stereo not given)
inactive: [5] 99 % of control | [1] 95 % of control | [2] 102 % of control | [3] 95 % of control

CC1=CC(=NN=c2cc(C)n([O-])c(C)c2)C=C(C)[N+]1=O
inactive: dose: 12.5 mg/kg/injection, vehicle: suspension in saline 91 % of control | dose: 25.0 mg/kg/injection, vehicle: saline with Tween-80 107 % of control | dose: 25.0 mg/kg/injection, vehicle: suspension in saline 99 % of control | [5] 123 % of control | dose: 50.0 mg/kg/injection, vehicle: suspension in saline 95 % of control | [1] 121 % of control | dose: 100.0 mg/kg/injection, vehicle: suspension in saline 108 % of control
